Reference: patent US20090075887A1, “Treatment with Kallikrein Inhibitors” (GENZYME CORPORATION, priority 2007, published 2009)
Bridges are numbered along the chain shown (N, C = ends). Where no end group is shown, it is not given here.

Target: plasma kallikrein (Homo sapiens, UniProt P03952)
Experiment: Inhibition constant for plasma kallikrein
Assay type: biochemical
Settings: plasma kallikrein (PK); value used for the dose calculation

Sequence of plasma kallikrein (P03952 20-638): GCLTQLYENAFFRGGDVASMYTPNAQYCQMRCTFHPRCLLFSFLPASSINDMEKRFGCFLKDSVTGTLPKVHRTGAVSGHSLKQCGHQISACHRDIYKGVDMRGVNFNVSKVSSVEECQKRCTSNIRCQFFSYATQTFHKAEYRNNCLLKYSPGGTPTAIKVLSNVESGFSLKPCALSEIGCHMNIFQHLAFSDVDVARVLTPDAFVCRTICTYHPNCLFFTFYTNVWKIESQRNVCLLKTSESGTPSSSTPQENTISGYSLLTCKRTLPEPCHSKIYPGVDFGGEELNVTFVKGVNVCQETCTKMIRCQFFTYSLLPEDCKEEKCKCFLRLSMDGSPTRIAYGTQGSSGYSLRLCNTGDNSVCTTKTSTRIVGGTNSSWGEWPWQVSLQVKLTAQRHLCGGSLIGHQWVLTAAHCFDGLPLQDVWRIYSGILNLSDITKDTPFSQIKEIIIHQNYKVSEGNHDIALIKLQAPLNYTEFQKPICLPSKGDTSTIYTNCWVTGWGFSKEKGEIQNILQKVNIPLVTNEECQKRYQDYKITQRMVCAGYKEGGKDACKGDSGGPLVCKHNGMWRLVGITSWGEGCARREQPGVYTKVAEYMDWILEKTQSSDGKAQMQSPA

Ki: 0.044 nM
Sequence: EAMHSFCAFKADDGPCRAAHPRWFFNIFTRQCEEFIYGGCEGNQNRFESLEECKKMCTRD (disulfide 7-57, 16-40, 32-53) [DX88]
